PubChem BioAssay AID328 (DTP/NCI, 2004)
Several values for one entry are separate records, joined by “and”; a condition that tells them apart may be missing. Identical values can stand only once. Inconclusive results and toxic doses are left out. How the source made its calls: active means survival T/C of 150% or more; inactive means T/C below 125% in these data.

System: BDF1 mice, P388 leukemia ip, median survival T/C
Assay: NCI In Vivo Anticancer Drug Screen. Data for tumor model P388 Leukemia (intraperitoneal) in B6D2F1 (BDF1) mice
Conditions: endpoint: median survival time, higher = longer survival
In short: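 T/C = treated-group survival ÷ vehicle-control survival; tumour transplanted into mice before dosing.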

[1] = dose: 25.0 mg/kg/injection, schedule: Q01DX009 (ip), vehicle: saline
[2] = dose: 25.0 mg/kg/injection, schedule: Q04DX003 (ip), vehicle: saline
[3] = dose: 50.0 mg/kg/injection, schedule: Q01DX009 (ip), vehicle: saline
[4] = dose: 100.0 mg/kg/injection, schedule: Q01DX009 (ip), vehicle: saline
[5] = dose: 100.0 mg/kg/injection, schedule: Q04DX003 (ip), vehicle: saline
[6] = dose: 12.5 mg/kg/injection, schedule: Q01DX009 (ip), vehicle: saline
[7] = dose: 100.0 mg/kg/injection, schedule: Q04DX003 (ip), vehicle: saline sonified
[8] = dose: 200.0 mg/kg/injection, schedule: Q04DX003 (ip), vehicle: saline sonified

Measured: T/C

COc1ccc2c(c1)NC(=O)C2(C)SC (stereo unspecified)
inactive: dose: 12.5 mg/kg/injection, schedule: Q04DX003 (ip), vehicle: saline with Tween-80 103 % of control | dose: 25.0 mg/kg/injection, schedule: Q04DX003 (ip), vehicle: saline with Tween-80 97 % of control | dose: 50.0 mg/kg/injection, schedule: Q04DX003 (ip), vehicle: saline with Tween-80 106 % of control

CCN1CC=CCC1
inactive: [1] 95 % of control | [2] 95 % of control and 104 % of control and 118 % of control | dose: 35.0 mg/kg/injection, schedule: Q04DX003 (ip), vehicle: saline 109 % of control | [3] 100 % of control | dose: 75.0 mg/kg/injection, schedule: Q04DX003 (ip), vehicle: saline 86 % of control | [4] 116 % of control | [5] 109 % of control

CC1CN1c1nc(N2CC2C)nc(N2CC2C)n1 (stereo unspecified)
inactive: dose: 3.0 mg/kg/injection, schedule: Q01DX009 (ip), vehicle: saline 104 % of control | dose: 3.0 mg/kg/injection, schedule: Q04DX003 (ip), vehicle: saline 109 % of control | dose: 6.0 mg/kg/injection, schedule: Q01DX009 (ip), vehicle: saline 112 % of control | dose: 6.0 mg/kg/injection, schedule: Q04DX003 (ip), vehicle: saline 109 % of control | dose: 12.0 mg/kg/injection, schedule: Q04DX003 (ip), vehicle: saline 114 % of control | dose: 12.5 mg/kg/injection, schedule: Q04DX003 (ip), vehicle: saline 120 % of control

CCn1c(O)c(N=NC(=S)NC)c2ccccc21
inactive: dose: 37.5 mg/kg/injection, schedule: Q01DX009 (ip), vehicle: saline with Tween-80 86 % of control

CC(C)N(C(C)C)S(=O)(=O)c1ccccc1C(O)(c1ccccc1)c1ccccc1
inactive: dose: 25.0 mg/kg/injection, schedule: Q01DX009 (ip), vehicle: saline with Tween-80 90 % of control | dose: 50.0 mg/kg/injection, schedule: Q01DX009 (ip), vehicle: saline with Tween-80 86 % of control | dose: 100.0 mg/kg/injection, schedule: Q01DX009 (ip), vehicle: saline with Tween-80 90 % of control

Cc1nc(N(C)C)c2cnn(-c3ccccc3)c2n1
inactive: dose: 25.0 mg/kg/injection, schedule: Q01DX009 (ip), vehicle: Klucel (hydroxypropylcellulose) (HPC) 105 % of control | dose: 50.0 mg/kg/injection, schedule: Q01DX009 (ip), vehicle: Klucel (hydroxypropylcellulose) (HPC) 105 % of control | dose: 100.0 mg/kg/injection, schedule: Q01DX009 (ip), vehicle: Klucel (hydroxypropylcellulose) (HPC) 105 % of control

CN(C)CCCCc1cn(-c2ccccc2)c2ccccc12
inactive: [6] 105 % of control | dose: 27.5 mg/kg/injection, schedule: Q01DX001 (ip), vehicle: saline 100 % of control | dose: 33.0 mg/kg/injection, schedule: Q01DX009 (ip), vehicle: saline 109 % of control | [3] 104 % of control | dose: 55.0 mg/kg/injection, schedule: Q01DX001 (ip), vehicle: saline 108 % of control | dose: 110.0 mg/kg/injection, schedule: Q01DX001 (ip), vehicle: saline 108 % of control

COC(=O)C1C2CC[N+]3(CCCCC13)O2 (stereo unspecified)
inactive: dose: 3.13 mg/kg/injection, schedule: Q01DX009 (ip), vehicle: saline 100 % of control | dose: 6.25 mg/kg/injection, schedule: Q01DX009 (ip), vehicle: saline 100 % of control | [6] 93 % of control and 109 % of control | [3] 105 % of control

Cc1ccc(Nc2nc(N)nc(CNc3ccc(Cl)cc3)n2)cc1
inactive: [7] 110 % of control | [8] 100 % of control | dose: 400.0 mg/kg/injection, schedule: Q04DX003 (ip), vehicle: saline sonified 100 % of control

COC1(OC)C2(Cl)CC(=O)C3CC(=O)C3C1(Cl)C(Cl)=C2Cl (stereo unspecified)
inactive: dose: 100.0 mg/kg/injection, schedule: Q01DX001 (ip), vehicle: Klucel (hydroxypropylcellulose) (HPC) 103 % of control | dose: 200.0 mg/kg/injection, schedule: Q01DX001 (ip), vehicle: Klucel (hydroxypropylcellulose) (HPC) 107 % of control | dose: 400.0 mg/kg/injection, schedule: Q01DX001 (ip), vehicle: Klucel (hydroxypropylcellulose) (HPC) 96 % of control

O=c1cc[nH]c2cc(C(F)(F)F)ccc12
inactive: [7] 100 % of control | [8] 95 % of control

Cc1cc[n+](C)c2ccccc12
inactive: dose: 9.37 mg/kg/injection, schedule: Q04DX003 (ip), vehicle: saline 100 % of control | dose: 18.75 mg/kg/injection, schedule: Q04DX003 (ip), vehicle: saline 100 % of control

CSC(=S)NNC(=O)C1CCCCC1
inactive: dose: 25.0 mg/kg/injection, schedule: Q01DX001 (ip), vehicle: saline sonified 100 % of control | dose: 50.0 mg/kg/injection, schedule: Q01DX001 (ip), vehicle: saline sonified 104 % of control | dose: 100.0 mg/kg/injection, schedule: Q01DX001 (ip), vehicle: saline sonified 100 % of control

CCCNC(=O)Nc1ccc(C(=O)OCC(C)C)cc1
inactive: dose: 100.0 mg/kg/injection, schedule: Q04DX003 (ip), vehicle: saline with Tween-80 104 % of control | dose: 200.0 mg/kg/injection, schedule: Q04DX003 (ip), vehicle: saline with Tween-80 100 % of control | dose: 400.0 mg/kg/injection, schedule: Q04DX003 (ip), vehicle: saline with Tween-80 100 % of control

O=[N+]([O-])c1cccc(OCCCOc2ccccc2)c1
inactive: dose: 100.0 mg/kg/injection, schedule: Q01DX009 (ip), vehicle: other 100 % of control | dose: 100.0 mg/kg/injection, schedule: Q04DX003 (ip), vehicle: other 110 % of control | dose: 200.0 mg/kg/injection, schedule: Q01DX009 (ip), vehicle: other 100 % of control | dose: 200.0 mg/kg/injection, schedule: Q04DX003 (ip), vehicle: other 110 % of control | dose: 400.0 mg/kg/injection, schedule: Q01DX009 (ip), vehicle: other 100 % of control | dose: 400.0 mg/kg/injection, schedule: Q04DX003 (ip), vehicle: other 100 % of control

CCCCCCCCCCCCCCCOc1ccc(C)cc1
inactive: dose: 50.0 mg/kg/injection, schedule: Q04DX003 (ip), vehicle: saline sonified 90 % of control | [7] 100 % of control | [8] 90 % of control

CCC(C)C1(C)OC1C(=O)OC (stereo unspecified)
inactive: dose: 200.0 mg/kg/injection, schedule: Q01DX009 (ip), vehicle: saline with Tween-80 107 % of control | dose: 400.0 mg/kg/injection, schedule: Q01DX009 (ip), vehicle: saline with Tween-80 107 % of control

Cc1ccc(S(=O)(=O)N(CCC(=N)N)C(C)C)cc1
inactive: [6] 95 % of control | [1] 90 % of control | [2] 104 % of control | [3] 105 % of control | dose: 50.0 mg/kg/injection, schedule: Q04DX003 (ip), vehicle: saline 100 % of control

COc1ccc(CC2Cc3cc(OC)c(OC)cc3C=N2)cc1OC (stereo unspecified)
inactive: [3] 96 % of control | [4] 107 % of control | [5] 103 % of control | dose: 200.0 mg/kg/injection, schedule: Q04DX003 (ip), vehicle: saline 111 % of control

CCN1C[C@]2(COC)[C@H](O)C[C@H](OC)[C@]34C1[C@H]([C@H](OC)[C@H]23)[C@]1(OC(C)=O)[C@H]2[C@@H](OC(=O)c3ccccc3)[C@](O)(C[C@H]24)[C@@H](OC)[C@@H]1O
inactive: dose: 0.13 mg/kg/injection, schedule: Q01DX009 (ip), vehicle: Klucel (hydroxypropylcellulose) (HPC) 93 % of control | dose: 0.25 mg/kg/injection, schedule: Q01DX009 (ip), vehicle: Klucel (hydroxypropylcellulose) (HPC) 91 % of control
